Experimental data from PubChem BioAssay (NCI).
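Cells were grown in 96-well plates and exposed to each compound for 48 hours at five concentrations; endpoints were interpolated linearly between bracketing concentrations, or set to the highest concentration if not reached. At the GI50, growth is halved. TGI denotes the concentration required for complete inhibition of growth.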

Key:
Assay in all cases: NCI-60 cell line screen, 48 h
UACC-257 melanoma = tested on: UACC-257 melanoma
HOP-92 NSCLC = tested on: HOP-92 NSCLC
OVCAR-3 ovarian = tested on: OVCAR-3 ovarian
M14 melanoma = tested on: M14 melanoma
SF-295 CNS = tested on: SF-295 CNS
HT29 colon = tested on: HT29 colon
CAKI-1 renal = tested on: CAKI-1 renal
SR leukemia = tested on: SR leukemia
SK-MEL-5 melanoma = tested on: SK-MEL-5 melanoma
SK-OV-3 ovarian = tested on: SK-OV-3 ovarian
SNB-19 CNS = tested on: SNB-19 CNS
IGROV1 ovarian = tested on: IGROV1 ovarian
RXF 393 renal = tested on: RXF 393 renal
A498 renal = tested on: A498 renal
SN12C renal = tested on: SN12C renal
SF-539 CNS = tested on: SF-539 CNS
T-47D breast = tested on: T-47D breast
MCF7 breast = tested on: MCF7 breast
OVCAR-4 ovarian = tested on: OVCAR-4 ovarian
DU-145 prostate = tested on: DU-145 prostate
LOX IMVI melanoma = tested on: LOX IMVI melanoma
SNB-75 CNS = tested on: SNB-75 CNS
786-0 renal = tested on: 786-0 renal
MDA-MB-231 breast = tested on: MDA-MB-231 breast
HL-60(TB) leukemia = tested on: HL-60(TB) leukemia
HOP-62 NSCLC = tested on: HOP-62 NSCLC
NCI-H460 lung = tested on: NCI-H460 lung
MDA-MB-435 = tested on: MDA-MB-435
TK-10 renal = tested on: TK-10 renal
MOLT-4 leukemia = tested on: MOLT-4 leukemia
SW-620 colon = tested on: SW-620 colon
OVCAR-8 ovarian = tested on: OVCAR-8 ovarian
HCC-2998 colon = tested on: HCC-2998 colon
RPMI-8226 leukemia = tested on: RPMI-8226 leukemia
KM12 colon = tested on: KM12 colon
COLO 205 colon = tested on: COLO 205 colon
PC-3 prostate = tested on: PC-3 prostate
BT-549 breast = tested on: BT-549 breast
NCI/ADR-RES ovarian = tested on: NCI/ADR-RES ovarian
SF-268 CNS = tested on: SF-268 CNS
UO-31 renal = tested on: UO-31 renal
ACHN renal = tested on: ACHN renal
UACC-62 melanoma = tested on: UACC-62 melanoma
HCT-15 colon = tested on: HCT-15 colon
NCI-H226 lung = tested on: NCI-H226 lung
A549 NSCLC = tested on: A549 NSCLC
CCRF-CEM leukemia = tested on: CCRF-CEM leukemia
HCT-116 colon = tested on: HCT-116 colon
OVCAR-5 ovarian = tested on: OVCAR-5 ovarian
SK-MEL-2 melanoma = tested on: SK-MEL-2 melanoma
K-562 leukemia = tested on: K-562 leukemia
NCI-H522 lung = tested on: NCI-H522 lung
U251 CNS = tested on: U251 CNS
NCI-H23 lung = tested on: NCI-H23 lung
HS 578T breast = tested on: HS 578T breast
MALME-3M melanoma = tested on: MALME-3M melanoma
SK-MEL-28 melanoma = tested on: SK-MEL-28 melanoma

SMILES: NC(=O)c1ccc(N(C(N)=O)c2c(F)cccc2F)nc1-c1ccc(F)cc1F
- GI50 (UACC-257 melanoma): > 100 µM
- TGI (UACC-257 melanoma): > 100 µM
- GI50 (HOP-92 NSCLC): 28 µM
- TGI (HOP-92 NSCLC): > 100 µM
- GI50 (OVCAR-3 ovarian): > 100 µM
- TGI (OVCAR-3 ovarian): > 100 µM
- GI50 (M14 melanoma): > 100 µM
- TGI (M14 melanoma): > 100 µM
- GI50 (SF-295 CNS): > 100 µM
- TGI (SF-295 CNS): > 100 µM
- GI50 (HT29 colon): > 100 µM
- TGI (HT29 colon): > 100 µM
- GI50 (CAKI-1 renal): > 100 µM
- TGI (CAKI-1 renal): > 100 µM
- GI50 (SR leukemia): > 100 µM
- TGI (SR leukemia): > 100 µM
- GI50 (SK-MEL-5 melanoma): > 100 µM
- TGI (SK-MEL-5 melanoma): > 100 µM
- GI50 (SK-OV-3 ovarian): > 100 µM
- TGI (SK-OV-3 ovarian): > 100 µM
- GI50 (SNB-19 CNS): > 100 µM
- TGI (SNB-19 CNS): > 100 µM
- GI50 (IGROV1 ovarian): > 100 µM
- TGI (IGROV1 ovarian): > 100 µM
- GI50 (RXF 393 renal): > 100 µM
- TGI (RXF 393 renal): > 100 µM
- GI50 (A498 renal): > 45.4 µM
- TGI (A498 renal): > 100 µM
- GI50 (SN12C renal): > 100 µM
- TGI (SN12C renal): > 100 µM
- GI50 (SF-539 CNS): > 100 µM
- TGI (SF-539 CNS): > 100 µM
- GI50 (T-47D breast): > 100 µM
- TGI (T-47D breast): > 100 µM
- GI50 (MCF7 breast): > 100 µM
- TGI (MCF7 breast): > 100 µM
- GI50 (OVCAR-4 ovarian): > 100 µM
- TGI (OVCAR-4 ovarian): > 100 µM
- GI50 (DU-145 prostate): > 100 µM
- TGI (DU-145 prostate): > 100 µM
- GI50 (LOX IMVI melanoma): > 100 µM
- TGI (LOX IMVI melanoma): > 100 µM
- GI50 (SNB-75 CNS): > 100 µM
- TGI (SNB-75 CNS): > 100 µM
- GI50 (786-0 renal): > 100 µM
- TGI (786-0 renal): > 100 µM
- GI50 (MDA-MB-231 breast): > 100 µM
- TGI (MDA-MB-231 breast): > 100 µM
- GI50 (HL-60(TB) leukemia): > 100 µM
- TGI (HL-60(TB) leukemia): > 100 µM
- GI50 (HOP-62 NSCLC): > 100 µM
- TGI (HOP-62 NSCLC): > 100 µM
- GI50 (NCI-H460 lung): > 100 µM
- TGI (NCI-H460 lung): > 100 µM
- GI50 (MDA-MB-435): > 100 µM
- TGI (MDA-MB-435): > 100 µM
- GI50 (TK-10 renal): > 100 µM
- TGI (TK-10 renal): > 100 µM
- GI50 (MOLT-4 leukemia): > 100 µM
- TGI (MOLT-4 leukemia): > 100 µM
- GI50 (SW-620 colon): > 100 µM
- TGI (SW-620 colon): > 100 µM
- GI50 (OVCAR-8 ovarian): > 100 µM
- TGI (OVCAR-8 ovarian): > 100 µM
- GI50 (HCC-2998 colon): > 100 µM
- TGI (HCC-2998 colon): > 100 µM
- GI50 (RPMI-8226 leukemia): > 100 µM
- TGI (RPMI-8226 leukemia): > 100 µM
- GI50 (KM12 colon): > 100 µM
- TGI (KM12 colon): > 100 µM
- GI50 (COLO 205 colon): > 100 µM
- TGI (COLO 205 colon): > 100 µM
- GI50 (PC-3 prostate): > 100 µM
- TGI (PC-3 prostate): > 100 µM
- GI50 (BT-549 breast): > 100 µM
- TGI (BT-549 breast): > 100 µM
- GI50 (NCI/ADR-RES ovarian): > 100 µM
- TGI (NCI/ADR-RES ovarian): > 100 µM
- GI50 (SF-268 CNS): > 100 µM
- TGI (SF-268 CNS): > 100 µM
- GI50 (UO-31 renal): > 100 µM
- TGI (UO-31 renal): > 100 µM
- GI50 (ACHN renal): > 100 µM
- TGI (ACHN renal): > 100 µM
- GI50 (UACC-62 melanoma): > 100 µM
- TGI (UACC-62 melanoma): > 100 µM
- GI50 (HCT-15 colon): > 100 µM
- TGI (HCT-15 colon): > 100 µM
- GI50 (NCI-H226 lung): > 100 µM
- TGI (NCI-H226 lung): > 100 µM
- GI50 (A549 NSCLC): > 100 µM
- TGI (A549 NSCLC): > 100 µM
- GI50 (CCRF-CEM leukemia): > 100 µM
- TGI (CCRF-CEM leukemia): > 100 µM
- GI50 (HCT-116 colon): > 100 µM
- TGI (HCT-116 colon): > 100 µM
- GI50 (OVCAR-5 ovarian): > 100 µM
- TGI (OVCAR-5 ovarian): > 100 µM
- GI50 (SK-MEL-2 melanoma): > 100 µM
- TGI (SK-MEL-2 melanoma): > 100 µM
- GI50 (K-562 leukemia): > 100 µM
- TGI (K-562 leukemia): > 100 µM
- GI50 (NCI-H522 lung): > 100 µM
- TGI (NCI-H522 lung): > 100 µM
- GI50 (U251 CNS): > 100 µM
- TGI (U251 CNS): > 100 µM
- GI50 (NCI-H23 lung): > 100 µM
- TGI (NCI-H23 lung): > 100 µM
- GI50 (HS 578T breast): > 100 µM
- TGI (HS 578T breast): > 100 µM
- GI50 (MALME-3M melanoma): > 100 µM
- TGI (MALME-3M melanoma): > 100 µM
- GI50 (SK-MEL-28 melanoma): > 100 µM
- TGI (SK-MEL-28 melanoma): > 100 µM
